Biological target: T1, M-phase inducer phosphatase 1 (Homo sapiens, UniProt P30304)
T1 sequence (P30304 whole entry): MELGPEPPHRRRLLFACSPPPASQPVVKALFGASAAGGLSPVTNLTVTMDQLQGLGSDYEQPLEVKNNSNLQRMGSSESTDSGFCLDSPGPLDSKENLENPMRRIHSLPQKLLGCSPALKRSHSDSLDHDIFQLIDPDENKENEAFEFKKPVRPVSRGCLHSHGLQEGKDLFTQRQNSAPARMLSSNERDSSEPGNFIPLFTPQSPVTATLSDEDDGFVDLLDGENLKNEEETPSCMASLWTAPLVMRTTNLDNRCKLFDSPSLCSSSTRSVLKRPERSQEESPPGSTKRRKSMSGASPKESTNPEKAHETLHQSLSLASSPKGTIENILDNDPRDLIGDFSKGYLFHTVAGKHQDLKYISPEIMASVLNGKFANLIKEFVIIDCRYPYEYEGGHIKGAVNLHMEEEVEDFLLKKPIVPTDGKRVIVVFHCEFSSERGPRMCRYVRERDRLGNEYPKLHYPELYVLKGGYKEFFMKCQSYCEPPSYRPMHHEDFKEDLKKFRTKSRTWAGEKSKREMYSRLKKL
Assay: Compound was evaluated for the inhibition of Cdc25A phosphatase by using fluorescein diphosphate as substrate

IC50 | Compound
2.2 µM | C=C(CCCCC#N)[C@H]1CC[C@]2(C)[C@@H]([C@H](C)CCCC(C)C)CC[C@H]2[C@@H]1CC(=O)O
13.3 µM | CC(C)CCCC(C)[C@H]1CC[C@H]2[C@@H]3CC(=O)O[C@@](C)(CC/C=C\C#N)[C@H]3CC[C@]12C (stereo not given in full)
> 50 µM | CC(C)CCCC(C)[C@H]1CC[C@H]2[C@@H]3CC(=O)O[C@](C)(CC/C=C\C#N)[C@H]3CC[C@]12C (stereo not given in full)
24.2 µM | C/C(=C\C/C=C\C#N)[C@H]1CC[C@]2(C)[C@@H](C(C)CCCC(C)C)CC[C@H]2[C@@H]1CC(=O)O (stereo not given in full)
9.7 µM | C=C(CC/C=C\C#N)[C@H]1CC[C@]2(C)[C@@H](C(C)CCCC(C)C)CC[C@H]2[C@@H]1CC(=O)O (stereo not given in full)

Source: ChEMBL document CHEMBL1131184, “Novel CDC25A phosphatase inhibitors from pyrolysis of 3-alpha-azido-B-homo-6-oxa-4-cholesten-7-one on silica gel” (J Med Chem, 1998)
